Data as given in publication PMC11591356, “Immunomodulatory Effects of the Tobacco Defensin NaD1” (Antibiotics, 2024).
Ends that are not written are not given here.

How the values were obtained:
[1] = system: THP-1-derived macrophages; assay: ELISA assay of cytokine production by THP-1-derived macrophages; type: cell-based, human
Experimental: THP-1 (ATCC TIB-202) cells were thawed and cultured in complete RPMI-1640, containing 10% FBS (Capricorn Scientific) and 1×AA solution in CO2-intubator. Monocytic THP-1 cells were differentiated into resting M0 macrophages by stimulation for 24 h with 100 ng/mL phorbol 12-myristate 13-acetate (PMA) in complete RPMI-1640. Then, the attached macrophage-like cells were washed out with culture medium without serum and incubated for another 48 h in PMA-free complete culture medium with 10% HS and 1×AA solution.
THP-1-derived macrophages were seeded into the wells of a 24-well plate at a density of 2.7 × 10^5 cells/well in complete RPMI-1640 with 10% HS and 1×AA solution. Then, 24 h later, the culture medium was replaced by the fresh complete RPMI-1640 containing lipopolysaccharide from Escherichia coli 0111:B4 (LPS, Sigma, St. Louis, MO, USA) or zymosan from the cell wall of Saccharomyces cerevisiae (Serva, Heidelberg, Germany) at concentrations of 1 or 10 μg/mL, respectively; antimicrobial peptides NaD1, Psd1, LL-37 or HBD2 at concentrations of 2 or 0.2 µM; and combinations of antimicrobial peptides with LPS or zymosan at the same concentrations. Insoluble zymosan was resuspended in sterile water and sonicated twice for 30 s; after that, the stock solution was heated to 80 °C for 20 min. Peptides were added 2 h before stimulation with LPS and zymosan. After that, PAMPs solutions were added and the cells were cultured for 24 h. Complete RPMI-1640 only was used in the control wells. Culture supernatants were collected and stored at −70 °C prior to the cytokines’ assessment.
The production of pro- and anti-inflammatory cytokines IL-1β, IL-6, TNF-α and IL-10 by stimulated and non-stimulated THP-1-derived macrophages were estimated by using ELISA kits (Vector-Best, Koltsovo, Russia). Briefly, 96-well plates with adsorbed monoclonal antibodies to the corresponding cytokine were used. Undiluted or diluted 5, 20 or 80 times in the case of IL-10, TNF-α and IL-1β or IL-6, respectively, culture supernatants from the wells of 24-well plates were taken for analysis. Biotinylated polyclonal antibodies to cytokines, streptavidin conjugated to HRP and TMB substrate were further used for the detection of immune complexes. A panel of calibration solutions containing different concentrations of cytokines was used in each experiment. Experiments were performed using two biological and two technical repeats. The release of the cytokines in the control and experimental samples was compared with an unpaired two-sample t-test using GraphPad Prism v.8.0.1 (GraphPad Software, Inc., San Diego, CA, USA). The p values ≤ 0.05 were considered significant.

[2] = system: Caco-2 polarized monolayer; assay: Caco-2 permeability assay, bidirectional transport; type: in vitro ADME, human; settings: Caco-2 polarized monolayer (21 days, TEER > 400 Ω cm^2), 5 µM FITC-labeled NaD1, HBSS transfer buffer pH 7.4, 90 min
Experimental: Caco-2 (ATCC HTB-37) cells were thawed and cultured in complete DMEM/F-12 culture medium (Corning), supplemented with 10% FBS in a humidified CO2-intubator. After the culture was subcultivated three times, the cells were seeded on cell inserts (PET, 0.4 μm, 0.6 cm^2 surface area, SPL Life Sciences, Pocheon-si, Republic of Korea) at a density of 2.5 × 10^5 cells/cm^2. Cells were grown for 21 days with re-feeding with the fresh medium every 2–3 days. To evaluate integrity of Caco-2 monolayer, a transepithelial electrical resistance (TEER) was measured by Millicell ERS-2 Voltohmmeter (Merck-Millipore, Burlington, MA, USA). Only inserts with TEER > 400 Ω cm^2 were used in the transport assay.
The permeability assay was conducted in transfer buffer (HBSS solution, containing 1 mM CaCl2, 1 mM MgCl2, 10 mM D(+)glucose, pH 7.4). […]
The apparent permeability coefficients (Papp) were calculated for each insert according to the following equation: Papp = dQ/dt × (1/(A × C0)), where dQ/dt is an amount of product present in the basolateral or apical chamber as a function of time (nM/s), A is an area of the insert (in cm^2) and C0 is an initial concentration of NaD1 in the apical or basolateral chamber (nM/mL). […]

[3] = peptide 2 µM 2 h before LPS 1 μg/mL, 24 h, vs LPS alone
[4] = peptide 2 µM 2 h before zymosan 10 μg/mL, 24 h, vs zymosan alone

NaD1: Recombinant tobacco floral defensin NaD1 (UNIPROT Q8GTM0), obtained by heterologous expression in E. coli; FITC-labeled in the permeability assay (RECKTESNTFPGICITKPPCRKACISEKFTDGHCSKILRRCLCTKPC; cysteine pairing not given here; also: FITC label; UniProt Q8GTM0 26-72, looked up)
IL-10 production by M0 and M1 macrophages ([1]; elevation from 150 (without NaD1)): 180 pg/mL | IL-1β production by M0 and M1 macrophages ([1]; increase from 4500 (without NaD1)): 6500 pg/mL | LPS-induced IL-1β production [1, 3]: increased the LPS-induced production of IL-1β | LPS-induced IL-10 production [1, 3]: increased the LPS-induced production of IL-10 | LPS-induced TNF-α secretion [1, 3]: reduced the LPS-induced secretion of TNF-α | IL-1β production in the presence of zymosan [1, 4]: induced the production of IL-1β (p <0.0001) more strongly than without this PAMP | IL-10 production in the presence of zymosan [1, 4]: increased the production of IL-10 in the presence of zymosan | IL-10 production, unstimulated macrophages ([1]; peptide 2 µM alone, vs unstimulated control): induced the production of IL-10 | IL-1β production, unstimulated macrophages ([1]; peptide 2 µM alone, vs unstimulated control, two biological and two technical repeats): significantly increased IL-1β level | Apparent permeability coefficient Papp, A→B (absorptive) ([2]; apical to basolateral, mean of 6 independent inserts): 2.72 ×10⁻⁶ cm/s | Apparent permeability coefficient Papp, B→A (secretory) ([2]; basolateral to apical, mean of 4 independent inserts): 2.22 ×10⁻⁶ cm/s
